Test results: US6207656A, “Vitamin D analogues and their neuronal effects” (Cephalon, Inc., priority 1998, dated 2001)

Experiments:
[1] = cited from earlier work
[2] = Calcemic activity in rats, serum calcium after 7 days oral gavage; format: in vivo, LEW/MOL female rats; conditions: for Calcium in Serum: 0.5 μg/kg/day p.o., ± S.D.
Procedure: For determining calcemic activity, LEW/MOL female rats (130-170 g) were administered test compounds daily for 7 days by oral gavage. Control rats received the vehicle. Each group consisted of 3 rats. Blood was collected by cardiac puncture on day 7.

- Calcium in Serum ([2]; Table 2A (vehicle 2.46 ± 0.06)): 2.71 ± 0.08 mmol/L
- Calcium in Serum ([2]; Table 2B (vehicle 2.57 ± 0.06)): 2.66 ± 0.10 mmol/L
- Calcium in Serum ([2]; Table 2C (vehicle 2.68 ± 0.03)): 2.77 ± 0.03 mmol/L
- Calcium in Serum ([2]; Table 2D (vehicle 2.51 ± 0.09)): 2.71 ± 0.03 mmol/L
- Calcium in Serum ([2]; Table 2E (vehicle 2.51 ± 0.09)): 2.71 ± 0.03 mmol/L
- Calcemic Activity (%) ([2]; potency relative to 1α,25(OH)2 D3, rats, p.o. 7 days): 100%
Structure (SMILES): C=C1/C(=C\C=C2/CCC[C@]3(C)[C@@H]([C@H](C)CCCC(C)(C)O)CC[C@@H]23)C[C@@H](O)C[C@@H]1O [1α,25(OH)2 D3, 1,25-dihydroxy vitamin D3, reference compound]
- serum calcium levels at doses that induce NGF ([1]; background): increase serum calcium levels at doses that induce NGF
- calcemic effect at efficacious doses ([1]; based upon previous data): calcemic
